One block for each molecule: values may come before it.
Key:
[1] = tested on: human leukemia EU-1 cell line; experiment: WST antiproliferative/cytotoxicity assay, EU-1; format: cell-based; conditions: for fold increased potency compared to 2: para-ester replaced by acetyl or isobutyryl; for fold drop in potency, para to meta position: 16 vs 13, 17 vs 14
[2] = biological target: T1, MDM2 (Homo sapiens, UniProt Q00987); experiment: MDM2 binding; conditions: subsequent mechanistic studies, no data shown
[3] = tested on: ALL cell lines (EU-1 and EU-3); experiment: WST cytotoxicity assay, ALL cell lines; format: cell-based; conditions: Homo sapiens, 48 h
[4] = tested on: NB cell lines (NB-1643, SHEP1, and LA1–55N); experiment: WST cytotoxicity assay, NB cell lines; format: cell-based; conditions: Homo sapiens, 48 h
[5] = biological target: T1, MDM2; experiment: Western blot, MDM2 expression in EU-1 cells; format: cell-based
[6] = tested on: XIAP; experiment: Western blot, XIAP expression in EU-1 cells; format: cell-based, human; conditions: dose-dependent
[7] = tested on: p53, p21 and PUMA; experiment: Western blot, p53 and its targets p21 and PUMA; format: cell-based, human; conditions: EU-1 cells; accompanying MDM2 downregulation
[8] = tested on: human normal bone marrow mononuclear (NBMM) cells; experiment: Clonogenic assays for CFU-GM and BFU-E; format: cell-based; conditions: 1 μM, colonies counted after 14 days, vs control
[9] = mice; cited from earlier work

T1 sequence (Q00987 whole entry): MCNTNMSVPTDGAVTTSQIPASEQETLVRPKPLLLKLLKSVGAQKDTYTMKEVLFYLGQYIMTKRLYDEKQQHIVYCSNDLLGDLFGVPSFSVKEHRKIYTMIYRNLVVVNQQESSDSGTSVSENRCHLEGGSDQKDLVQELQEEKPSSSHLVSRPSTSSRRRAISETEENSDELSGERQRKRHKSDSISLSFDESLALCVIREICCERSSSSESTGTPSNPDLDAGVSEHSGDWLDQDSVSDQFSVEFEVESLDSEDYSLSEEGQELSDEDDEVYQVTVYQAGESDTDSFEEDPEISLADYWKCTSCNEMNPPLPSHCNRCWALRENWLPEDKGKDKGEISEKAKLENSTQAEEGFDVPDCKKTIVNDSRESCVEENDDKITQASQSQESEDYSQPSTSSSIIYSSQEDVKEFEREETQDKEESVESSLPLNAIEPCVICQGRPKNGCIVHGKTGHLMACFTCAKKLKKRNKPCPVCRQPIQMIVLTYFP

SMILES: CC(=O)c1ccc(C2Nc3ccc(S(=O)(=O)Nc4ccc(C)c(C)c4)cc3C3OCCC23)cc1 (stereo not drawn) [Compound 13, 4-(4-Acetylphenyl)-N-(3,4-dimethylphenyl)-2,3,3a,4,5,9b-hexahydrofuro[3,2-c]quinoline-8-sulfonamide]
fold increased potency compared to 2 [1]: approximately 4 fold | binding to the MDM2 target [2]: does not bind to the MDM2 target

SMILES: Cc1ccc(NS(=O)(=O)c2ccc3c(c2)C2OCCC2C(c2ccc(C(=O)C(C)C)cc2)N3)cc1C (stereo not drawn) [Compound 14, N-(3,4-Dimethylphenyl)-4-(4-isobutyrylphenyl)-2,3,3a,4,5,9b-hexahydrofuro[3,2-c]quinoline-8-sulfonamide]
fold increased potency compared to 2 [1]: approximately 4 fold | IC50 [3]: 300 to 400 nM | IC50 [4]: 500 to 1200 nM | time after treatment at which downregulation of MDM2 and XIAP occurred ([5]; MDM2 and XIAP): 2 to 4 h | MDM2 expression ([5]; dose-dependent): remarkable downregulation | XIAP expression [6]: remarkable downregulation | p53 expression [7]: increased expression of p53

SMILES: Cc1ccc(NS(=O)(=O)c2ccc3c(c2)[C@H]2OCC[C@H]2[C@@H](c2ccc(C(=O)C(C)C)cc2)N3)cc1C [Compound 14d, (3aS,4S,9bS)-N-(3,4-Dimethylphenyl)-4-(4-isobutyrylphenyl)-2,3,3a,4,5,9b-hexahydrofuro[3,2-c]quinoline-8-sulfonamide]
fold higher potency compared to the other three isomers ([1]; 14d vs 14a–c): 5- to 8 fold

SMILES: Cc1ccc(NS(=O)(=O)c2ccc3c(c2)C2OCCC2C(c2ccc(C(O)C(C)C)cc2)N3)cc1C (stereo not drawn) [Compound 15, N-(3,4-Dimethylphenyl)-4-(4-(1-hydroxy-2-methylpropyl)phenyl)-2,3,3a,4,5,9b-hexahydrofuro[3,2-c]-quinoline-8-sulfonamide]
fold decreased potency compared to 14 ([1]; EU-1 IC50 ratio): approximately 4 fold

SMILES: CC(=O)c1cccc(C2Nc3ccc(S(=O)(=O)Nc4ccc(C)c(C)c4)cc3C3OCCC23)c1 (stereo not drawn) [Compound 16, 4-(3-Acetylphenyl)-N-(3,4-dimethylphenyl)-2,3,3a,4,5,9b-hexahydrofuro[3,2-c]quinoline-8-sulfonamide]
fold drop in potency, para to meta position [1]: 4 fold

SMILES: Cc1ccc(NS(=O)(=O)c2ccc3c(c2)C2OCCC2C(c2cccc(C(=O)C(C)C)c2)N3)cc1C (stereo not drawn) [Compound 17, N-(3,4-Dimethylphenyl)-4-(3-isobutyrylphenyl)-2,3,3a,4,5,9b-hexahydrofuro[3,2-c]quinoline-8-sulfonamide]
fold drop in potency, para to meta position [1]: 7 fold

SMILES: Cc1ccc(NS(=O)(=O)c2ccc3c(c2)C2OCCC2C(c2ccc(C(=O)C4CC4)cc2)N3)cc1C (stereo not drawn) [Compound 22, 4-(4-(Cyclopropanecarbonyl)phenyl)-N-(3,4-dimethylphenyl)-2,3,3a,4,5,9b-hexahydrofuro[3,2-c]quinoline-8-sulfonamide]
fold decreased potency compared to 14 ([1]; EU-1 IC50 ratio): 10 fold

SMILES: Cc1ccc(NS(=O)(=O)c2ccc3c(c2)C2OCCC2C(c2ccc(C(=O)C4CCCCC4)cc2)N3)cc1C (stereo not drawn) [Compound 25, 4-(4-(Cyclohexanecarbonyl)phenyl)-N-(3,4-dimethylphenyl)-2,3,3a,4,5,9b-hexahydrofuro[3,2-c]quinoline-8-sulfonamide]
fold decreased potency compared to 14 ([1]; EU-1 IC50 ratio): approximately 6 fold

SMILES: Cc1ccc(NS(=O)(=O)c2ccc3c(c2)C2OCCC2C(c2ccc(C(=O)c4ccccc4)cc2)N3)cc1C (stereo not drawn) [Compound 26, 4-(4-Benzoylphenyl)-N-(3,4-dimethylphenyl)-2,3,3a,4,5,9b-hexahydrofuro[3,2-c]quinoline-8-sulfonamide]
fold decreased potency compared to 14 ([1]; EU-1 IC50 ratio): approximately 6 fold

SMILES: Cc1ccc(NS(=O)(=O)c2ccc3c(c2)C2C=CCC2C(c2ccc(C(=O)C(C)C)cc2)N3)cc1C (stereo not drawn) [Compound 27, N-(3,4-Dimethylphenyl)-4-(4-isobutyrylphenyl)-3a,4,5,9b-tetrahydro-3H-cyclopenta[c]quinoline-8-sulfonamide]
fold decreased potency compared to 14 ([1]; EU-1 IC50 ratio): 5 fold

SMILES: Cc1ccc(NS(=O)(=O)c2ccc3c(c2)C2CCCC2C(c2ccc(C(=O)C(C)C)cc2)N3)cc1C (stereo not drawn) [Compound 28, N-(3,4-Dimethylphenyl)-4-(4-isobutyrylphenyl)-2,3,3a,4,5,9b-hexahydro-1H-cyclopenta[c]quinoline-8-sulfonamide]
fold drop in potency compared to 27 ([1]; saturation of cyclopentene double bond): approximately 3 fold

SMILES: Cc1ccc(NS(=O)(=O)c2ccc3c(c2)C2NCCC2C(c2ccc(C(=O)C(C)C)cc2)N3)cc1C (stereo not drawn) [Compound 30, N-(3,4-Dimethylphenyl)-4-(4-isobutyrylphenyl)-2,3,3a,4,5,9b-hexahydro-1H-pyrrolo[3,2-c]quinoline-8-sulfonamide]
fold decreased potency compared to 14 ([1]; EU-1 IC50 ratio): 6 fold

SMILES: Cc1ccc(NS(=O)(=O)c2ccc3c(c2Cl)C2C=CCC2C(c2ccc(S(C)(=O)=O)cc2)N3)cc1C (stereo not drawn) [Compound 44, 9-Chloro-N-(3,4-dimethylphenyl)-4-(4-(methylsulfonyl)phenyl)-3a,4,5,9b-tetrahydro-3H-cyclopenta[c]quinolone-8-sulfonamide]
fold less potent than parent compound 42 ([1]; EU-1 IC50 ratio): approximately 6 fold

SMILES: Cc1ccc(N(C)S(=O)(=O)c2ccc3c(c2)C2OCCC2C(c2ccc(C(=O)C(C)C)cc2)N3C)cc1C (stereo not drawn) [Compound 45, N-(3,4-Dimethylphenyl)-4-(4-isobutyrylphenyl)-N,5-dimethyl-2,3,3a,4,5,9b-hexahydrofuro[3,2-c]quinoline-8-sulfonamide]
fold decreased potency compared to 14 ([1]; EU-1 IC50 ratio): 2 fold

SMILES: Cc1ccc(N(C)S(=O)(=O)c2ccc3c(c2)C2OCCC2C(c2ccc(C(=O)C(C)C)cc2)N3)cc1C (stereo not drawn) [Compound 46, N-(3,4-Dimethylphenyl)-4-(4-isobutyrylphenyl)-N-methyl-2,3,3a,4,5,9b-hexahydrofuro[3,2-c]quinoline-8-sulfonamide]
fold decreased potency compared to 14 ([1]; EU-1 IC50 ratio): 3 fold

CFU-GM and BFU-E colony numbers and size [8]: significantly reduced
SMILES: COc1cccc2c1C(=O)c1c(O)c3c(c(O)c1C2=O)C[C@@](O)(C(=O)CO)C[C@@H]3O[C@H]1C[C@H](N)[C@H](O)[C@H](C)O1 [Dox, doxorubicin]

SMILES: Cc1ccc(NS(=O)(=O)c2ccc3c(c2)C2C=CCC2C(c2ccc(C(=O)O)cc2)N3)cc1C (stereo not drawn) [MX69]
tolerability [9]: well tolerated

Reference: paper PMC9128806 (Journal of medicinal chemistry, 2021)
